Measurements taken from patent publication US20240165135A1, “COMPOSITIONS AND METHODS FOR THE TREATMENT OF CANCER” (The State of Israel, Ministry of Agriculture & Rural …, priority 2021, published 2024).

Legend:
Format in all cases: cell-based, Human
A172 cells [1] = experiment: Transwell assay, A172 cell invasion; conditions: 24 hours; F4 12 μg/mL, F5 10 μg/mL, Doxo 0.5 μg/mL
Protocol: Transwell assay—Cells were seeded in the upper chamber of a 24-well plate containing insert with an 8-μm pore size membrane (BD, Falcon Cat #353097), at a density of 5×10^4 in 250 μL complete medium and were incubated at 37° C. for 60 minutes to recover. Following, cells were treated and incubated for 24 hours followed by viability test with resazurin (AR002, R&D Systems, USA). The inserts were taken out of the medium, the inner part was wiped using a cotton swab to remove the detached cells. The inserts were transferred into a new 24-well plate, fixated using 70% ethanol for 10 minutes and dried for 50 minutes, followed by staining in 400 μL of 0.2% crystal violet, washing with PBS, and drying for 5 minutes. Cells stained underneath the membrane were counted in inverted microscope in 3-5 different fields.

A172 cells [2] = experiment: Apoptosis assay, Annexin V-FITC and PI, FACS, A172; conditions: 48 hours, F4-SM 10 μg/mL, F5-SM 10 μg/mL, Doxo 0.5 μg/mL
Protocol: Apoptosis assay—Apoptosis for the A172 cell line was assessed using MEBCYTO Apoptosis Kit with Annexin V-FITC and PI (MBL, Enco, 4700). Staining was carried out according to manufacturer's instructions. In brief, cells were seeded in a 6-well TC plate, at a density of 4×10^5 cells in 2 mL of SFM per well. 24 hours following seeding, cells were treated with the indicated treatments in complete medium for 48 hours. Following incubation, cells were harvested using trypsin and centrifuged for 5 minutes at 1600 rpm. Cell pellets were resuspended and washed twice with 1 mL of PBS. The cells in each sample were resuspended in 85 μL of Annexin binding buffer. Cells were stained using 10 μL of Annexin V-FITC solution and 5 μL of propidium iodide (PI) working solution followed by incubation in the dark at room temperature for 15 minutes. Then 400 μL of Annexin V binding buffer was added to each tube and flow cytometry was performed using a Gallios flow cytometer (FACS). Cells were considered apoptotic if they were Annexin V+/PI− (early apoptosis) or Annexin V+/PI+ (late apoptosis). Live cells were defined as Annexin V−/PI−, and Annexin V−/PI+ as necrosis.

A172 cells [3] = experiment: F-actin staining, confocal imaging of A172 cytoskeleton; conditions: 24 hours; F4 12 μg/mL, F5 10 μg/mL, Doxo 0.5 μg/mL
Protocol: Cell staining—EasyProbes™ ActinRed 555 Stain was used for F-actin staining and Hoechst 33342 (ABP Biosciences, USA) for nuclei staining, according to the manufacturer's instructions. Briefly, cells were seeded on confocal dishes (D35-20-1.5-N, Cellvis, USA) at a density of 2×10^4 in 500 μL complete medium. Following 24 hours incubation, the indicated treatments at different concentrations were added for additional 24 hours. For the staining process, cells were washed with PBS and fixed with 3.7% formaldehyde solution in PBS and incubated at room temperature for 10 minutes followed by incubation in 0.1% Triton X-100 (T8787; Sigma Aldrich, USA) for 5 minutes, washing with PBS and incubation in 1% BSA (A7284; Sigma Aldrich, USA) solution for 30 minutes. Two drops of EasyProbes™ Actin and of Hoechst were applied to each of the samples for 20 minutes. […] The number of F-actin filaments was quantified as the number of filaments that crosse a line that is drawn electronically across the soma. Percentage of filaments in the different treatments was calculated out of the average number of filaments in the control.

COc1cccc2c1C(=O)c1c(O)c3c(c(O)c1C2=O)C[C@@](O)(C(=O)CO)C[C@@H]3O[C@H]1C[C@H](N)[C@H](O)[C@H](C)O1 [Doxorubicin]
reduction of cell invasion relative to vehicle control (A172 cells [1]): 22.5%
necrotic cells (A172 cells [2]; methanol control 3.4%): 23.8%
cell apoptosis (A172 cells [2]; vehicle control 8.0%): 60.6%
F-actin network / structures (A172 cells [3]): less pronounced in comparison to that of F4 or F5
